# Assay results as given in US11814680B2, “Biomarkers for detecting senescent cells” (Universität für Bodenkultur Wien, priority 2017, dated 2023).
# Test system: p16-3MR mice
# Test: Pearson correlation of serum miRNA levels to miR-34a-5p and miR-27a-3p
# Set-up: species or system mouse
# Conditions: correlation of serum level to miR44a-5p (so in the source)
# Text: In order to extend these finding to potential additional miRNAs, we performed Pearson correlation to miR-34a-5p and miR-27a-3p, resulting in additional potential biomarkers (Table 18).
row,Substance,Pearson Correlcation coefficient miR44a-5p
1,"mmu-miR-3058-3p: circulating microRNA, SEQ ID No. 8 (UUCCUGUCAGCCGUGGGUGCC; expressed or natural sequence; listed as Homo sapiens)",0.80
2,"mmu-miR-191-5p: circulating microRNA, SEQ ID No. 18 (CAACGGAAUCCCAAAAGCAGCUG; expressed or natural sequence; listed as Homo sapiens)",0.32
3,"mmu-miR-29a-3p: circulating microRNA, SEQ ID No. 22 (UAGCACCAUCUGAAAUCGGUUA; expressed or natural sequence; listed as Homo sapiens)",0.74
4,"mmu-miR-30b-5p: circulating microRNA, SEQ ID No. 9 (UGUAAACAUCCUACACUCAGCU; expressed or natural sequence; listed as Homo sapiens)",0.70
5,"mmu-miR-6395: circulating microRNA, SEQ ID No. 12 (CUGGCCCUCUCUGCCCUGUUUA; expressed or natural sequence; listed as Homo sapiens)",0.61
6,"mmu-miR-652-3p: circulating microRNA, SEQ ID No. 13 (AAUGGCGCCACUAGGGUUGUG; expressed or natural sequence; listed as Homo sapiens)",0.77
7,"mmu-miR-223-3p: circulating microRNA, SEQ ID No. 19 (UGUCAGUUUGUCAAAUACCCCA; expressed or natural sequence; listed as Homo sapiens)",0.55
8,"mmu-miR-10a-3p: circulating microRNA, SEQ ID No. 16 (CAAAUUCGUAUCUAGGGGAAUA; expressed or natural sequence; listed as Homo sapiens)",0.52

# Same assay, conditions: correlation of serum level to miR-27a-3p
row,Substance,Pearson Correlcation coefficient miR-27a-3p
1,"mmu-miR-3058-3p: circulating microRNA, SEQ ID No. 8 (UUCCUGUCAGCCGUGGGUGCC; expressed or natural sequence; listed as Homo sapiens)",0.54
2,"mmu-miR-191-5p: circulating microRNA, SEQ ID No. 18 (CAACGGAAUCCCAAAAGCAGCUG; expressed or natural sequence; listed as Homo sapiens)",0.81
3,"mmu-miR-29a-3p: circulating microRNA, SEQ ID No. 22 (UAGCACCAUCUGAAAUCGGUUA; expressed or natural sequence; listed as Homo sapiens)",0.74
4,"mmu-miR-30b-5p: circulating microRNA, SEQ ID No. 9 (UGUAAACAUCCUACACUCAGCU; expressed or natural sequence; listed as Homo sapiens)",0.65
5,"mmu-miR-6395: circulating microRNA, SEQ ID No. 12 (CUGGCCCUCUCUGCCCUGUUUA; expressed or natural sequence; listed as Homo sapiens)",0.81
6,"mmu-miR-652-3p: circulating microRNA, SEQ ID No. 13 (AAUGGCGCCACUAGGGUUGUG; expressed or natural sequence; listed as Homo sapiens)",0.66
7,"mmu-miR-223-3p: circulating microRNA, SEQ ID No. 19 (UGUCAGUUUGUCAAAUACCCCA; expressed or natural sequence; listed as Homo sapiens)",0.83
8,"mmu-miR-10a-3p: circulating microRNA, SEQ ID No. 16 (CAAAUUCGUAUCUAGGGGAAUA; expressed or natural sequence; listed as Homo sapiens)",0.90
